Reference: ChEMBL document CHEMBL1150455, “Preparation and in vitro activities of naphthyl and indolyl ether derivatives of the FK-506 related immunosuppressive macrolide ascomycin” (Bioorg Med Chem Lett, 1996)

Columns and labels:
[1] = target: Peptidyl-prolyl cis-trans isomerase FKBP1A (Homo sapiens, UniProt P62942); assay: In vitro competitive binding to FK506 binding protein 12 versus tritiated FK-506.
T-cell [2] = assay: In vitro inhibition of proliferation of PMA and ionomycin stimulated murine T cells.; assay type: functional, cell-based; conditions: Mus musculus
T-cell [3] = assay: In vitro inhibition of proliferation of PMA and ionomycin stimulated murine T cells; Antagonist; assay type: functional, cell-based, Mus musculus

Chain of Peptidyl-prolyl cis-trans isomerase FKBP1A (P62942 whole entry): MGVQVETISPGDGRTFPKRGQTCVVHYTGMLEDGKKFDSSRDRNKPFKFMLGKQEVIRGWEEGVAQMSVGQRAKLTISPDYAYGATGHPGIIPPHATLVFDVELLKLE

| SMILES | IC50 [1] [nM] | IC50 (T-cell [2]) [nM] | IC50 (T-cell [3]) |
| --- | --- | --- | --- |
| CC[C@@H]1/C=C(\C)[C@@H](O)[C@H](C)[C@H](OC)[C@H]2O[C@@](O)(C(=O)C(=O)N3CCCC[C@H]3C(=O)O[C@H](/C(C)=C/[C@@H]3CC[C@@H](Oc4ccc5c(ccn5C)c4)[C@H](OC)C3)[C@H](C)[C@@H](O)CC1=O)[C@H](C)C[C@@H]2OC | 2.8 | 5.5 | – |
| C=CC[C@@H]1/C=C(\C)C[C@H](C)[C@H](OC)[C@H]2O[C@@](O)(C(=O)C(=O)N3CCCC[C@H]3C(=O)O[C@H](/C(C)=C/[C@@H]3CC[C@@H](O)[C@H](OC)C3)[C@H](C)[C@@H](O)CC1=O)[C@H](C)C[C@@H]2OC | 0.8 | 0.2 | – |
| CC[C@@H]1/C=C(\C)C[C@H](C)[C@H](OC)[C@H]2O[C@@](O)(C(=O)C(=O)N3CCCC[C@H]3C(=O)O[C@H](/C(C)=C/[C@@H]3CC[C@@H](O)[C@H](OC)C3)[C@H](C)[C@@H](O)CC1=O)[C@H](C)C[C@@H]2OC | 1.6 | 0.7 | – |
| CC[C@@H]1/C=C(\C)[C@@H](O)[C@H](C)[C@H](OC)[C@H]2O[C@@](O)(C(=O)C(=O)N3CCCC[C@H]3C(=O)O[C@H](/C(C)=C/[C@@H]3CC[C@@H](O)[C@H](OC)C3)[C@H](C)[C@@H](O)CC1=O)[C@H](C)C[C@@H]2OC | 0.7 | – | Antagonist |
| CC[C@@H]1/C=C(\C)[C@@H](O)[C@H](C)[C@H](OC)[C@H]2O[C@@](O)(C(=O)C(=O)N3CCCC[C@H]3C(=O)O[C@H](/C(C)=C/[C@@H]3CC[C@@H](Oc4ccc5ccccc5c4)[C@H](OC)C3)[C@H](C)[C@@H](O)CC1=O)[C@H](C)C[C@@H]2OC | – | 10.2 | – |
| CC[C@@H]1/C=C(\C)C[C@H](C)[C@H](OC)[C@H]2O[C@@](O)(C(=O)C(=O)N3CCCC[C@H]3C(=O)O[C@H](/C(C)=C/[C@@H]3CC[C@@H](Oc4ccccc4)[C@H](OC)C3)[C@H](C)[C@@H](O)CC1=O)[C@H](C)C[C@@H]2OC | 10 | 5.4 | – |

Second part, led by results:

| IC50 [1] [nM] | SMILES | IC50 (T-cell [2]) [nM] | IC50 (T-cell [3]) |
| --- | --- | --- | --- |
| 5.1 | CC[C@@H]1/C=C(\C)C[C@H](C)[C@H](OC)[C@H]2O[C@@](O)(C(=O)C(=O)N3CCCC[C@H]3C(=O)O[C@H](/C(C)=C/[C@@H]3CC[C@@H](Oc4ccc5[nH]ccc5c4)[C@H](OC)C3)[C@H](C)[C@@H](O)CC1=O)[C@H](C)C[C@@H]2OC | 0.2 | – |
| 3.6 | CC[C@@H]1/C=C(\C)C[C@H](C)[C@H](OC)[C@H]2O[C@@](O)(C(=O)C(=O)N3CCCC[C@H]3C(=O)O[C@H](/C(C)=C/[C@@H]3CC[C@@H](Oc4ccc5c(ccn5C)c4)[C@H](OC)C3)[C@H](C)[C@@H](O)CC1=O)[C@H](C)C[C@@H]2OC | 0.2 | – |
| 74.8 | CC[C@@H]1/C=C(\C)C[C@H](C)[C@H](OC)[C@H]2O[C@@](O)(C(=O)C(=O)N3CCCC[C@H]3C(=O)O[C@H](/C(C)=C/[C@@H]3CC[C@@H](Oc4ccc5ccccc5c4)[C@H](OC)C3)[C@H](C)[C@@H](O)CC1=O)[C@H](C)C[C@@H]2OC | 1.8 | – |
